Test results: patent US20080194529A1 (AUSPEX PHARMACEUTICALS, INC., priority 2007, published 2008)

Tests used:
[1] = assay type: in vitro ADME; conditions: topical or ocular, 5 microgram per mL
Experimental: Liver microsomal stability assays were conducted at 1 mg per mL liver microsome protein with an NADPH-generating system in 2% NaHCO3 (2.2 mM NADPH, 25.6 mM glucose 6-phosphate, 6 units per mL glucose 6-phosphate dehydrogenase and 3.3 mM MgCl2). Test compounds were prepared as solutions in 20% acetonitrile-water and added to the assay mixture (final assay concentration 5 microgram per mL) and incubated at 37° C. Final concentration of acetonitrile in the assay were <1%. Aliquots (50 μL) were taken out at times 0, 15, 30, 45, and 60 minutes, and diluted with ice cold acetonitrile (200 μL) to stop the reactions. Samples were centrifuged at 12000 RPM for 10 minutes to precipitate proteins. Supernatants were transferred to microcentrifuge tubes and stored for LC/MS/MS analysis of the degradation half-life of the test compounds.

[2] = cited from earlier work

| SMILES | increase in the degradation half-life as compared to the non-isotopically enriched drug (udenafil) [1] | side effects of chromatopsia, such as sensitivity to light and blurred vision, in patients taking the drug [2] [%] |
| --- | --- | --- |
| [2H]C([2H])(CC)c1nn(C([2H])([2H])[2H])c2c(=O)[nH]c(-c3cc(S(=O)(=O)NCCC4CCCN4C)ccc3OCCC)nc12 (stereo not drawn) [Example 4, d5-3-(1-Methyl-7-oxo-3-propyl-6,7-dihydro-1H-pyrazolo[4,3-d]pyrimidin-5-yl)-N-[2-(1-methyl-pyrrolidin-2-yl)-ethyl]-4-propoxy-benzenesulfonamide] | 12-15% |  |
| [2H]C([2H])(CC)c1nn(C)c2c(=O)[nH]c(-c3cc(S(=O)(=O)NCCC4CCCN4C)ccc3OCCC)nc12 (stereo not drawn) [Example 5, d2-3-(1-Methyl-7-oxo-3-propyl-6,7-dihydro-1H-pyrazolo[4,3-d]pyrimidin-5-yl)-N-[2-(1-methyl-pyrrolidin-2-yl)-ethyl]-4-propoxy-benzenesulfonamide] | 12-15% |  |
| CN1CC(=O)N2[C@H](c3ccc4c(c3)OCO4)c3[nH]c4ccccc4c3C[C@@H]2C1=O [tadalafil] |  | < 0.1 |
